Key:
Test in all cases: relative viability (nuclei count vs DMSO), 5 days (fraction); higher = more cells survive
[1] = compound: CC1=C(C(=O)N2C=CSC2=N1)CCN3CCC(=C(C4=CC=CC=C4)C5=CC=C(C=C5)F)CC3 + C[C@]1(O)C[C@@H](c2nc(-c3ccc4ccc(-c5ccccc5)nc4c3)c3c(N)nccn32)C1 [Linsitinib] (partner 1 µM)
Summary of the method: (§1)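 For relative viability, nuclei counts in treated wells were divided by those in vehicle wells. Lung cancer cell lines had been pin-tool dosed in 1536-well plates the day after seeding and cultured for 5 days, then fixed and stained in one step (final 0.05% Triton X-100, 1% formaldehyde, 1 ug/ml Hoechst) and imaged at 4×. Doses were one drug alone or a fixed anchor-drug dose plus five library-drug doses (not always all listed) in √10 steps, and values are duplicate-plate medians.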

[2] = compound: CC1=C(C(=O)N2C=CSC2=N1)CCN3CCC(=C(C4=CC=CC=C4)C5=CC=C(C=C5)F)CC3 + Nc1nc2[nH]cc(CCc3ccc(C(=O)N[C@@H](CCC(=O)O)C(=O)O)cc3)c2c(=O)[nH]1 [Pemetrexed] (partner 0.2 µM)
Summary of the method: as §1

[3] = compound: CC1=C(C(=O)N2C=CSC2=N1)CCN3CCC(=C(C4=CC=CC=C4)C5=CC=C(C=C5)F)CC3 + O=C(CCCCCCC(=O)Nc1ccccc1)NO [Vorinostat] (partner 1 µM)
Summary of the method: as §1

[4] = compound: CC1=C(C(=O)N2C=CSC2=N1)CCN3CCC(=C(C4=CC=CC=C4)C5=CC=C(C=C5)F)CC3 + O=C(c1cc(Cc2n[nH]c(=O)c3ccccc23)ccc1F)N1CCN(C(=O)C2CC2)CC1 [Olaparib] (partner 8 µM)
Summary of the method: as §1

Cell Line | relative viability ([1]; first compound 0.08 µM) | relative viability ([1]; first compound 0.253 µM) | relative viability ([1]; first compound 0.8 µM) | relative viability ([1]; first compound 2.53 µM) | relative viability ([1]; first compound 8 µM) | relative viability ([2]; first compound 0.08 µM) | relative viability ([2]; first compound 0.253 µM) | relative viability ([2]; first compound 0.8 µM) | relative viability ([2]; first compound 2.53 µM) | relative viability ([2]; first compound 8 µM) | relative viability ([3]; first compound 0.08 µM) | relative viability ([3]; first compound 0.253 µM) | relative viability ([3]; first compound 0.8 µM) | relative viability ([3]; first compound 2.53 µM) | relative viability ([3]; first compound 8 µM) | relative viability ([4]; first compound 0.08 µM) | relative viability ([4]; first compound 0.253 µM) | relative viability ([4]; first compound 0.8 µM) | relative viability ([4]; first compound 2.53 µM) | relative viability ([4]; first compound 8 µM)
NCI-H2087 | 1.06 | 0.9 | 0.852 | 1.12 | 0.745 | 0.634 | 0.686 | 0.595 | 0.682 | 0.599 | 0.865 | 0.591 | 0.859 | 0.625 | 0.485 | 0.564 | 0.559 | 0.57 | 0.756 | 0.445
NCI-H2126 | 0.712 | 0.729 | 0.801 | 0.797 | 0.716 | 0.587 | 0.758 | 0.713 | 0.721 | 0.511 | 0.794 | 0.852 | 0.784 | 0.802 | 0.631 | 1.07 | 0.855 | 0.975 | 0.968 | 0.695
NCI-H2228 | 0.769 | 0.803 | 0.672 | 0.706 | 0.445 | 0.406 | 0.37 | 0.375 | 0.362 | 0.278 | 0.474 | 0.557 | 0.636 | 0.599 | 0.337 | 0.591 | 0.701 | 0.723 | 0.728 | 0.347
NCI-H2347 | 0.921 | 0.958 | 0.977 | 0.932 | 0.804 | 0.398 | 0.482 | 0.441 | 0.454 | 0.409 | 0.538 | 0.603 | 0.573 | 0.579 | 0.453 | 0.58 | 0.571 | 0.616 | 0.549 | 0.598
NCI-H2405 | 0.999 | 1.14 | 1.1 | 0.862 | 0.744 | 1.11 |  | 1.07 | 1.08 | 0.758 | 1.18 |  | 1.08 | 1.06 | 0.789 | 0.941 |  | 0.889 | 0.989 | 0.79
NCI-H3122 | 1.04 | 1.05 | 0.998 | 1.19 | 1.02 | 0.192 | 0.188 | 0.201 | 0.214 | 0.163 | 0.875 | 1.1 | 1.08 | 0.987 | 0.516 | 0.458 | 0.627 | 0.595 | 0.628 | 0.371
